Experimental data from paper PMC9848300, “Discovery of novel enasidenib analogues targeting inhibition of mutant isocitrate dehydrogenase 2 as antileukaemic agents” (Journal of Enzyme Inhibition and Medicinal Chemistry, 2023).
Several values for one entry are separate records, joined by “and”; a condition that tells them apart may be missing. Equal values may be shown once. Read-outs that look alike come from different tables or passages of the source.

Assays:
Assay type in all cases: cell-based
[1] = system: DU-145; test: NCI 60 antitumor screening (single dose / five doses); conditions: Homo sapiens
[2] = system: SK-MEL-2; test: as above; conditions: Homo sapiens
[3] = system: HCT-116; test: as above; conditions: Homo sapiens
[4] = system: OVCAR-3; test: NCI 60 antitumor screening (single dose); conditions: Homo sapiens; OVCAR-3 (ovarian cancer), single dose 10 μM; read-out: Growth inhibition percentage (GI %)
Method in brief: (§1)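 Test compound added at 10 μM to each of 60 human cancer lines from nine tumour types; growth measured per NCI protocol in triplicate; percent growth converted to inhibition (100 − G%).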

[5] = system: MCF7; test: NCI 60 antitumor screening (single dose); conditions: Homo sapiens; MCF7 (breast cancer), single dose 10 μM; read-out: Growth inhibition percentage (GI %)
Method in brief: as §1

[6] = system: SF-268; test: NCI 60 antitumor screening (single dose); conditions: Homo sapiens; SF-268 (CNS cancer), single dose 10 μM; read-out: Growth inhibition percentage (GI %)
Method in brief: (§2)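 Compounds were tested at a single 10 μM dose against the NCI 60-cell-line panel (nine tumour types), in triplicate. Growth was recorded as percent growth (G%) of treated cells, and growth inhibition was taken as GI% = 100 − G%.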

[7] = system: SNB-19; test: NCI 60 antitumor screening (single dose); conditions: Homo sapiens; SNB-19 (CNS cancer), single dose 10 μM; read-out: Growth inhibition percentage (GI %)
Method in brief: as §1

[8] = system: OVCAR-4; test: NCI 60 antitumor screening (single dose); conditions: Homo sapiens; OVCAR-4 (ovarian cancer), single dose 10 μM; read-out: Growth inhibition percentage (GI %)
Method in brief: as §1

[9] = system: OVCAR-5; test: NCI 60 antitumor screening (single dose); conditions: Homo sapiens; OVCAR-5 (ovarian cancer), single dose 10 μM; read-out: Growth inhibition percentage (GI %)
Method in brief: as §2

[10] = system: M14; test: NCI 60 antitumor screening (single dose); conditions: Homo sapiens; M14 (melanoma), single dose 10 μM; read-out: Growth inhibition percentage (GI %)
Method in brief: as §1

[11] = system: U251; test: NCI 60 antitumor screening (single dose); conditions: Homo sapiens, U-251; U251 (CNS cancer), single dose 10 μM; read-out: Growth inhibition percentage (GI %)
Method in brief: as §2

[12] = system: A549/ATCC; test: NCI 60 antitumor screening (single dose); conditions: Homo sapiens; A549/ATCC (non-small cell lung cancer), single dose 10 μM; read-out: Growth inhibition percentage (GI %)
Method in brief: as §1

[13] = system: NCI-H23; test: NCI 60 antitumor screening (single dose); conditions: Homo sapiens; NCI-H23 (non-small cell lung cancer), single dose 10 μM; read-out: Growth inhibition percentage (GI %)
Method in brief: as §2

[14] = system: CAKI-1; test: NCI 60 antitumor screening (single dose); conditions: Homo sapiens; CAKI-1 (renal cancer), single dose 10 μM; read-out: Growth inhibition percentage (GI %)
Method in brief: as §1

[15] = system: HS 578T; test: NCI 60 antitumor screening (single dose); conditions: Homo sapiens; HS 578T (breast cancer), single dose 10 μM; read-out: Growth inhibition percentage (GI %)
Method in brief: as §1

[16] = system: SK-OV-3; test: NCI 60 antitumor screening (single dose); conditions: Homo sapiens; SK-OV-3 (ovarian cancer), single dose 10 μM; read-out: Growth inhibition percentage (GI %)
Method in brief: as §2

[17] = system: NCI-H322M; test: NCI 60 antitumor screening (single dose); conditions: Homo sapiens; NCI-H322M (non-small cell lung cancer), single dose 10 μM; read-out: Growth inhibition percentage (GI %)
Method in brief: as §1

[18] = system: NCI-H522; test: NCI 60 antitumor screening (single dose); conditions: Homo sapiens; NCI-H522 (non-small cell lung cancer), single dose 10 μM; read-out: Growth inhibition percentage (GI %)
Method in brief: as §2

[19] = system: KM 12; test: NCI 60 antitumor screening (single dose); conditions: Homo sapiens, KM12; KM 12 (colon cancer), single dose 10 μM; read-out: Growth inhibition percentage (GI %)
Method in brief: as §1

[20] = system: NCI-H226; test: NCI 60 antitumor screening (single dose); conditions: Homo sapiens; NCI-H226 (non-small cell lung cancer), single dose 10 μM; read-out: Growth inhibition percentage (GI %)
Method in brief: as §1

[21] = system: SK-MEL-28; test: NCI 60 antitumor screening (single dose / five doses); conditions: Homo sapiens
[22] = system: MALME-3M; test: as above; conditions: Homo sapiens; for inhibition at 10 µM: read-out: Growth inhibition percentage (GI %)
[23] = system: SF-539; test: as above; conditions: Homo sapiens
[24] = system: T-47D; test: as above; conditions: Homo sapiens, T47D; for inhibition at 10 µM: read-out: Growth inhibition percentage (GI %)
[25] = system: SR; test: as above; conditions: Homo sapiens, read-out: Growth inhibition percentage (GI %)
[26] = system: 60 human subpanel cancer cell lines; test: NCI 60 antitumor screening, mean over the panel (single dose); conditions: mean over 60 cancer cell lines, single dose 10 μM
Method in brief: as §2

[27] = system: MDA-MB-435; test: NCI 60 antitumor screening (single dose / five doses); conditions: Homo sapiens
[28] = DU-145 (prostate cancer), single dose 10 μM, read-out: Growth inhibition percentage (GI %)
[29] = SK-MEL-2 (melanoma), single dose 10 μM, read-out: Growth inhibition percentage (GI %)
[30] = HCT-116 (colon cancer), single dose 10 μM, read-out: Growth inhibition percentage (GI %)
[31] = SK-MEL-28 (melanoma), single dose 10 μM, read-out: Growth inhibition percentage (GI %)
[32] = MALME-3M (melanoma), single dose 10 μM
[33] = SF-539 (CNS cancer), single dose 10 μM, read-out: Growth inhibition percentage (GI %)
[34] = T-47D (breast cancer), single dose 10 μM
[35] = SR (leukaemia), single dose 10 μM
[36] = MDA-MB-435 (melanoma), single dose 10 μM, read-out: Growth inhibition percentage (GI %)

SMILES | inhibition at 10 µM [1, 28] [%] | inhibition at 10 µM [2, 29] [%] | inhibition at 10 µM [4] [%] | inhibition at 10 µM [5] [%] | inhibition at 10 µM [6] [%] | inhibition at 10 µM [7] [%] | inhibition at 10 µM [8] [%] | inhibition at 10 µM [9] [%] | inhibition at 10 µM [10] [%] | inhibition at 10 µM [11] [%] | inhibition at 10 µM [12] [%] | inhibition at 10 µM [13] [%] | inhibition at 10 µM [14] [%] | inhibition at 10 µM [15] [%] | inhibition at 10 µM [16] [%] | inhibition at 10 µM [17] [%] | inhibition at 10 µM [18] [%] | inhibition at 10 µM [19] [%] | inhibition at 10 µM [20] [%] | Mean GI % [26] | other results
Fc1cccc(Cl)c1/C=N/Nc1nc(N/N=C/c2c(F)cccc2Cl)nc(N2CCCCC2)n1 [compound 7l, 2,4-Bis[(E)-2-[(2-Chloro-6-fluorophenyl)methylidene]hydrazin-1-yl]-6-(piperidin-1-yl)-1,3,5-triazine] | 39 | 126 | 77.3 | 96.9 | 63.3 | 74.2 | 79 | 72.2 | 88.1 | 73.2 | 78.4 | 55.2 | 85.9 | 66.7 | 60.9 | 64.2 | 89.6 | 89.2 | 46.1 | 81% and 81.15% | GI50 ([1]; DU-145, five doses (0.01–100 μM), read-out: GI50): 11700 nM; GI50 ([2]; SK-MEL-2, five doses (0.01–100 μM)): 1690 nM; inhibition at 10 µM [3, 30]: 80.5%; GI50 ([3]; HCT-116, five doses (0.01–100 μM), read-out: GI50): 2830 nM; inhibition at 10 µM [21, 31]: 55.1%; GI50 ([21]; SK-MEL-28, five doses (0.01–100 μM), read-out: GI50): 3410 nM; inhibition at 10 µM [22, 32]: 95.8%; GI50 ([22]; MALME-3M, five doses (0.01–100 μM), read-out: GI50): 2210 nM; inhibition at 10 µM [23, 33]: 43.8%; GI50 ([23]; SF-539, five doses (0.01–100 μM), read-out: GI50): 7650 nM; inhibition at 10 µM [24, 34]: 89%; GI50 ([24]; T-47D, five doses (0.01–100 μM), read-out: GI50): 1710 nM; inhibition at 10 µM [25, 35]: 83.9%; inhibition at 10 µM [27, 36]: 96.2%; GI50 ([27]; MDA-MB-435, five doses (0.01–100 μM), read-out: GI50): 2860 nM
Clc1cccc(/C=N/Nc2nc(N/N=C/c3cccc(Cl)c3Cl)nc(N3CCCCC3)n2)c1Cl [compound 7h, 2,4-Bis[(E)-2-[(2,3-Dichlorophenyl)methylidene]hydrazin-1-yl]-6-(piperidin-1-yl)-1,3,5-triazine] | 26.6 | 2.27 | 91.8 | 28.8 | 13.6 | 4.59 | 28.6 | 6.05 | 31.2 | 47.1 | 44.4 | 0.28 | 15.9 | 15 | -5.17 | 10 | 23.4 | 32.8 | 2.51 | 18.81% | inhibition at 10 µM [3, 30]: 51.2%; inhibition at 10 µM [21, 31]: 5.78%; inhibition at 10 µM [22, 32]: 7.49%; inhibition at 10 µM [23, 33]: 15.7%; inhibition at 10 µM [24, 34]: 51.7%; inhibition at 10 µM [25, 35]: 66.6%; inhibition at 10 µM [27, 36]: -13.8%
O=[N+]([O-])c1cccc(/C=N/Nc2nc(N/N=C/c3cccc([N+](=O)[O-])c3)nc(N3CCCCC3)n2)c1 [compound 7f, 2,4-Bis[(E)-2-[(3-Nitrophenyl)methylidene]hydrazin-1-yl]-6-(piperidin-1-yl)-1,3,5-triazine] | – | – | 44.4 | 38.7 | 24.3 | 11.5 | 32.3 | -13 | 41.2 | 28.6 | 39.3 | 37.8 | 27.6 | 20.8 | -14.3 | 13.8 | 58.1 | 35.2 | 42.6 | 30.94% | inhibition at 10 µM ([1]; DU-145, read-out: Growth inhibition percentage (GI %)): 29.8%; inhibition at 10 µM ([2]; SK-MEL-2, read-out: Growth inhibition percentage (GI %)): 36%; inhibition at 10 µM ([3]; HCT-116, read-out: Growth inhibition percentage (GI %)): 47%; inhibition at 10 µM ([21]; SK-MEL-28, read-out: Growth inhibition percentage (GI %)): 31.4%; inhibition at 10 µM ([22]; Malme-3M): 7.94%; inhibition at 10 µM ([23]; SF-539, read-out: Growth inhibition percentage (GI %)): 7.37%; inhibition at 10 µM [24]: 47.5%; inhibition at 10 µM ([25]; SR): 53.3%; inhibition at 10 µM ([27]; MDA-MB-435, read-out: Growth inhibition percentage (GI %)): 26.1%
C(=N\Nc1nc(N/N=C/c2ccc3c(c2)OCO3)nc(N2CCCCC2)n1)/c1ccc2c(c1)OCO2 [compound 7k, 2,4-Bis[(E)-2-(2H-1,3-Benzodioxol-5-ylmethylidene)hydrazin-1-yl]-6-(piperidin-1-yl)-1,3,5-triazine] | 0.19 | -2.84 | -5.21 | 45.2 | -0.46 | 19.7 | -9.55 | -18.2 | 2.72 | 18.6 | 8.56 | -1.44 | 1.07 | -4.09 | -39.5 | 1.53 | 8.07 | 13.8 | -0.61 | 14.53% | inhibition at 10 µM [3, 30]: 52.1%; inhibition at 10 µM [21, 31]: -8.67%; inhibition at 10 µM [22, 32]: -20.2%; inhibition at 10 µM [23, 33]: 12.4%; inhibition at 10 µM [24, 34]: 12.8%; inhibition at 10 µM [25, 35]: 99.9%; inhibition at 10 µM [27, 36]: 1.52%
